A word on the Kd: it is the equilibrium constant for the complex coming apart.

Positions count from the first letter of the chain named.

In assay [1] the target is T1, KDM4A DTD (human KDM4A double tudor domain, 895–1011aa) (Homo sapiens, UniProt O75164).
T1 construct: DNA encoding DTDs (KDM4A 895–1011aa, KDM4B 917–1031aa and KDM4C 877–991aa); (His)6-HaloTag (pFN29) or (His)6 (pET28b); made in house; host or cells: Escherichia coli BL21 (DE3)
T1 sequence (O75164 895-1011): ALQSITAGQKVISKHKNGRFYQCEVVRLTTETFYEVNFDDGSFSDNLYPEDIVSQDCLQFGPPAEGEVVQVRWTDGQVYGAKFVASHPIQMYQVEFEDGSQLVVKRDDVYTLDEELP
Put plainly: fluorescence polarization (FP) binding, KDM4A-DTD wild-type. The conditions noted are these: matrix Fig. 1d and Fig. 3c, pH 7.4, read-out: binding affinity (Kd), KDM4A DTD wild-type. From the text: (§1) KDM4 protein sequences used in this study correspond to Uniprot ID: O75164 (human KDM4A, isoform 1), O94953 (human KDM4B, isoform1) and Q9H3R0 (human KDM4C, isoform1). Plasmid encoding KDM4A DTD was kindly provided by R-M Xu (Chinese Academy of Sciences). Complementary DNA encoding human KDM4B-DTD was synthesized (Integrated DNA Technologies). Plasmid containing cDNA of full-length KDM4C (clone ID: HsCD00341594) was obtained from Harvard Plasmid Repository. DNA encoding DTDs (KDM4A 895–1011aa, KDM4B 917–1031aa and KDM4C 877–991aa) were cloned into pFN29 (Promega) with N-terminal (His)6-HaloTag or pET28b with N-terminal (His)6 Tag using In-Fusion HD cloning kit (Clontech). Plasmids encoding Xenopus laevis core histones were a generous gift of K. Luger (University of Colorado-Boulder). Site-directed mutagenesis was performed with Q5 Site-Directed Mutagenesis Kit (New England Biolabs).
(§2) Peptide sequences are given in Supplementary Table 1. […] A no-protein control with only peptide probe was included. Polarization at each concentration was measured as triplicates in 384-well polystyrene black microplates (Thermo Fisher Scientific 262260) by Biotek Synergy H4 multimode plate reader (light source: xenon flash, offset from top: 7 mm, sensitivity: 60%, excitation: 485/20 nm, emission: 528/20 nm, both parallel and perpendicular, normal read speed). Fraction bound (Fb) at each concentration was calculated based on the corresponding polarization values (P): Fbc=(Pc−Pmin)/(Pmax−Pmin), where Pmin is the polarization value of no-protein control and Pmax is the polarization value of the saturation value for that peptide. Dissociation constants (Kd) were derived by KaleidaGraph, Synergy Software (version 4.1.3) using the following equation: Fb=[protein]/([protein]+Kd).
Background: Fluorescence polarisation rises when a labelled molecule tumbles more slowly, as on binding a larger partner.

For assay [2], the target named is T2, KDM4B DTD (human KDM4B double tudor domain, 917–1031aa) (Homo sapiens, UniProt O94953).
T2 construct: DNA encoding DTDs (KDM4A 895–1011aa, KDM4B 917–1031aa and KDM4C 877–991aa); (His)6-HaloTag (pFN29) or (His)6 (pET28b); made in house; host or cells: Escherichia coli BL21 (DE3)
T2 sequence (O94953 917-1031): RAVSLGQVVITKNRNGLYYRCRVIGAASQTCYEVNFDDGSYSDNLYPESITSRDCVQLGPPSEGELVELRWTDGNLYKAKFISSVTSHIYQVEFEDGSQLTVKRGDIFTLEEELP
Put plainly: fluorescence polarization (FP) binding, KDM4B-DTD wild-type. To be noted: matrix Fig. 1d, values given in mM, pH 7.4, read-out: binding affinity (Kd), KDM4B DTD.
Description: as §1, §2

Assay [3] concerns the target T3, KDM4B N960A (Homo sapiens, UniProt O94953, N960A).
T3 construct: DNA encoding DTDs (KDM4A 895–1011aa, KDM4B 917–1031aa and KDM4C 877–991aa); (His)6-HaloTag (pFN29) or (His)6 (pET28b); made in house; host or cells: Escherichia coli BL21 (DE3)
T3 sequence (O94953 917-1031 N960A): T2 sequence (O94953 917-1031) with N44A
The experiment in a line: FP binding, KDM4B-DTD N960A. To be noted: pH 7.4, Fig. 4g (± s.d., three replicates) and text.
Description: as §1, with “Plasmids encoding Xenopus laevis core histones were a generous gift of K. Luger (University of Colorado-Boulder). Site-directed mutagenesis was performed with Q5 Site-Directed Mutagenesis Kit (New England Biolabs).” left out
(§3) Peptide sequences are given in Supplementary Table 1. […] Polarization at each concentration was measured as triplicates in 384-well polystyrene black microplates (Thermo Fisher Scientific 262260) by Biotek Synergy H4 multimode plate reader (light source: xenon flash, offset from top: 7 mm, sensitivity: 60%, excitation: 485/20 nm, emission: 528/20 nm, both parallel and perpendicular, normal read speed). Fraction bound (Fb) at each concentration was calculated based on the corresponding polarization values (P): Fbc=(Pc−Pmin)/(Pmax−Pmin), where Pmin is the polarization value of no-protein control and Pmax is the polarization value of the saturation value for that peptide. […]

Assay [4] has as its target T4, KDM4B S965D (Homo sapiens, UniProt O94953, S965D).
T4 construct: DNA encoding DTDs (KDM4A 895–1011aa, KDM4B 917–1031aa and KDM4C 877–991aa); (His)6-HaloTag (pFN29) or (His)6 (pET28b); made in house; host or cells: Escherichia coli BL21 (DE3)
T4 sequence (O94953 917-1031 S965D): T2 sequence (O94953 917-1031) with S49D
Put plainly: FP binding, KDM4B-DTD S965D. To be noted: pH 7.4, Fig. 4i (± s.d., three replicates) and text.
Description: as §1, with “Plasmids encoding Xenopus laevis core histones were a generous gift of K. Luger (University of Colorado-Boulder). Site-directed mutagenesis was performed with Q5 Site-Directed Mutagenesis Kit (New England Biolabs).” left out
as §3

As to `C[C@H](N)C(=O)N[C@@H](CCCNC(=N)N)C(=O)N[C@H](C(=O)N[C@@H](CCCC[N+](C)(C)C)C(=O)N[C@@H](CCC(N)=O)C(=O)N[C@H](C(=O)N[C@@H](C)C(=O)N[C@@H](CCCNC(=N)N)C(=O)N[C@@H](CCCCN)C(=O)N[C@@H](CO)C(=O)N[C@H](C(=O)NCC(=O)NCC(=O)N[C@@H](CCCCNC(=O)c1ccc2c(c1)C(=O)OC21c2ccc(O)cc2Oc2cc(O)ccc21)C(=O)O)[C@@H](C)O)[C@@H](C)O)[C@@H](C)O` [H3K4me3], the Kd in assay [1] was 2.7 µM; in assay [2], > 3 mM; in assay [3], 304 ± 35.8 µM; in assay [4], 199 ± 16.1 µM.

For the origin of these results see PMC5114558, “Reader domain specificity and lysine demethylase-4 family function” (Nature Communications, 2016).
